Legend:
[1] = system: primary rat cortical neurons injured with glutamate; experiment: Effect in rat primary cortical neurons after glutamate injury; format: cell-based
Experimental: A., et al., 1999. J Neurosci 19: 2455-2463 and Callizot.
The medium was changed every 2 days. The cortical neurons were intoxicated with glutamate solution.
The following conditions were assessed: • Control (culture medium) • + glutamate (40 μM, 20 min) • + glutamate (40 μM, 20 min)+CR777 (at each concentration)

[2] = system: primary cocultures of central neurons and oligodendrocytes; experiment: In vitro MS (myelination) model; format: cell-based, rat
Experimental: A reproducible in vitro myelination model based on primary cocultures of central neurons and oligodendrocytes culturing in 96-well plate is used and adapted to high throughput screening.
Neurons/oligodendrocytes were cultured as previously described by Charles et al., 2000. PNAS 97 7585-7590.
Briefly, pregnant Wistar female rats of 17 days gestation were killed by cervical dislocation (Janvier Labs, France) and the foetuses removed from the uterus. The forebrains were removed and placed in ice-cold medium of Leibovitz (L15; Pan Biotech, Germany) containing 2% of Penicillin-Streptomycin (Batch 1451013, PanBiotech) and 1% of bovine serum albumin (BSA) (Batch K180713, Pan Biotech). Cortexes were dissociated by trypsinisation for 20 min at 37° C., with Trypsin EDTA 1× (Batch 7310713, PanBiotech). The reaction was stopped by the addition of Dulbecco's modified Eagle's medium (DMEM) (Batch 9710913, PanBiotech) containing DNAase I grade II at 0.1 mg/mL (Batch H131108, PanBiotech) and 10% of foetal calf serum (Batch 41Q7218K, Invitrogen, France). Cells were then mechanically dissociated by 3 passages through a 10 mL pipette. Cells were centrifuged at 180×g for 10 min at 4° C. temperature on a layer of BSA (3.5%) in L15 medium. The supernatant was discarded and cells of the pellet were re-suspended in DMEM containing 10% of FCS. […] The supernatant was discarded and cells of pellet were re-suspended in a culture medium consisting of Neurobasal (Batch 1625353, Invitrogen) supplemented with 2% of B27 (Batch 1618508, Invitrogen), 2 mM of L-glutamine (Batch 6620314, PanBiotech), 2% of PS solution, 1% of foetal calf serum (FCS) and 10 ng/mL of platelet-derived growth factor (PDGF-AA) (Batch H131205, PanBiotech).
The plates were maintained at 37° C. in a humidified incubator, in an atmosphere of air (95%)-CO2 (5%). Half of the medium was changed every 2 days with fresh medium in presence or absence of compound.
Plate 1 for Day 12 (A2B5) and plate 2 for Day 18 (MAG evaluation) • Control (vehicle) • Compound CR777 of example 1 (1 pmol/L) • Compound CR777 of example 1 (10 pmol/L) • Compound CR777 of example 1 (100 pmol/L) • Compound CR777 of example 1 (1 nmol/L) • Compound CR777 of example 1 (10 nmol/L) • Compound CR777 of example 1 (100 nmol/L) • Compound CR777 of example 1 (1 μmol/L) • Compound CR777 of example 1 (10 μmol/L)
The cells were then permeabilized and non-specific sites were blocked with a solution of phosphate buffered saline (Batch 3010914, PanBiotech) containing 0.1% of saponin (Batch BCBJ8417V, Sigma) and 1% FCS for 15 min at room temperature.
On day 12, cells were incubated with Monoclonal Anti-A2B5 conjugated Alexa Fluor® 488 produced in mouse (Batch 2281669, Millipore, France) at dilution of 1/200 in PBS containing 1% FCS, 0.1% saponin, and with anti-MAP-2 antibody produced in chicken (Batch GR180541-3, AbCam; United Kingdom) at dilution of 1/1000 in PBS containing 1% FCS, 0.1% saponin for 2 h at room temperature. […]
The immunolabeled cultures were automatically examined with ImageXpress (Molecular Devices) equipped with a LED at ×20 magnification. […] Number of A2B5 positive cells and number of MAG positive cells were automatically analyzed by using Custom module editor (Molecular Devices). […] All values were expressed as mean+/−SEM (s.e.mean) of the 6 wells. […]

[3] = system: Human MRC-5 cell line derived from normal lung tissue; experiment: Cytotoxicity test, cell growth inhibition by MTS assay; format: cell-based; settings: MRC-5, 72 h incubation, 8 concentrations
Experimental: Human MRC-5 cell line derived from normal lung tissue and human HCT-116 colorectal carcinoma were obtained from the American Type Culture Collection (ATCC, Rockville, Md.). Primary Human Umbilical Vein Endothelial Cells (HUVEC) isolated from the vein of the umbilical cord were obtained from Promocell (Germany). Cell lines were cultured according to the supplier's instructions. Human HCT-116 cells were grown in Gibco McCoy's 5A supplemented with 10% fetal calf serum (FCS) and 1% glutamine. Human MRC-5 cells were grown in DMEM supplemented with 10% fetal calf serum (FCS) and 1% glutamine. HUVECs were grown in Endothelial Cell Growth Medium 2 which is low-serum (2% V/V) media optimized for the cultivation of endothelial cells from large blood vessels.
Cells were counted using a Vi-cell XR (Beckman Coulter) and their viability assessed by 0.25% trypan blue dye exclusion. They were tested for the presence of mycoplasma before experiments with the Mycoplasma PCR Detection Kit (Applied Biological Materials Inc., Canada) in accordance with the manufacturer instructions and only mycoplasma-free cells were used for further investigations.
Cell lines were maintained at 37° C. in a humidified atmosphere containing 5% CO2. Cell growth inhibition was determined by an MTS assay according to the manufacturer's instructions (Promega, Madison, Wis., USA). […] After 24 h of culture, the cells were treated with the compound CR777 of example 1 at 8 different final concentrations. Each concentration was obtained from serial dilutions in culture medium starting from the stock solution. Control cells were treated with the vehicle. Experiments were performed in triplicate.
After 72 h of incubation, 20 μL of CellTiter 96® AQueous One Solution Reagent was added for 2 h before recording absorbance at 490 nm with a spectrophotometric plate reader. The dose-response curves were plotted with Graph Prism software and the IC50 values were calculated using the Graph Prism software from polynomial curves (four or five-parameter logistic equations).

[4] = 18 days of treatment, significant from 1 pmol/L up to 1 μmol/L, not at 10 μM

## CC1=C(CO)C(=O)O[C@@H]([C@@H](C)[C@H]2CCC3C4C[C@H](SC[C@H](NC(=O)CC[C@@H](N)C(=O)O)C(=O)NCC(=O)O)[C@]5(O)[C@@H](O)C=CC(=O)[C@]5(C)C4CC[C@@]32C)C1 (stereo partly drawn) [CR777]
[1]; CR777 1 pmol/L to 10 μmol/L overall, glutamate 40 μM, 20 min
  neurite network: moderate neuroprotective effect
[1]; CR777 100 pM, added 1 h before glutamate (40 μM, 20 min) and let for 48 h
  neuron survival: significantly protected neurons from death
[1]; CR777 from 1 nM up to 1 μM, glutamate 40 μM, 20 min
  neuron survival: full protection
[1]; glutamate 40 μM, 20 min
  concentration at which the maximal effect on neurite network was observed: 1 µM
[1]; glutamate 40 μM, 20 min, dose dependent
  concentration at which the maximal effect on neuron survival was reached: 10 nM
[1]; only the doses of 10, 100 pM and 1 μM, glutamate 40 μM, 20 min
  neurite network: significantly protected the neurite network
[2]; 12 days treatment, 1 pmol/L to 10 μmol/L
  OPC (precursor cells of oligodendrocytes) number, A2B5 positive cells: did not show any significant increase
[2]; 12 days treatment, at the highest doses
  total number of OPCs: decrease of the total number of OPCs
[2]; 18 days of treatment, all doses
  maximal effect on MAG, increase vs control: ~60%
[2]; [4]
  myelination of neurons by OL (area of MAG expression): significantly improved
  number of MAG positive cells (OL): able to increase the number of MAG positive cells
[3]
  toxicity (cell growth inhibition, MTS): does not show any toxicity
